From PubChem BioAssay (NCI)
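Method: 48-hour compound exposure of cells in 96-well plates, five concentrations, linear interpolation of endpoints. GI50: concentration for 50% inhibition of growth. At the TGI there is no net growth.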

Key:
Assay in all cases: growth of human tumour cells (NCI), 48 h
HOP-92 NSCLC = tested on: HOP-92 NSCLC
HL-60(TB) leukemia = tested on: HL-60(TB) leukemia
COLO 205 colon = tested on: COLO 205 colon
SK-MEL-28 melanoma = tested on: SK-MEL-28 melanoma
LOX IMVI melanoma = tested on: LOX IMVI melanoma
UO-31 renal = tested on: UO-31 renal
UACC-62 melanoma = tested on: UACC-62 melanoma
RXF 393 renal = tested on: RXF 393 renal
M14 melanoma = tested on: M14 melanoma
HCC-2998 colon = tested on: HCC-2998 colon

Compound | TGI (HOP-92 NSCLC) [µM] | TGI (HL-60(TB) leukemia) [µM] | TGI (COLO 205 colon) [µM] | TGI (SK-MEL-28 melanoma) [µM] | TGI (LOX IMVI melanoma) [µM] | TGI (UO-31 renal) [µM] | TGI (UACC-62 melanoma) [µM] | TGI (RXF 393 renal) [µM] | TGI (M14 melanoma) [µM] | TGI (HCC-2998 colon) [µM] | GI50 (HOP-92 NSCLC) [µM] | GI50 (HL-60(TB) leukemia) [µM] | GI50 (COLO 205 colon) [µM] | GI50 (SK-MEL-28 melanoma) [µM] | GI50 (LOX IMVI melanoma) [µM] | GI50 (UO-31 renal) [µM] | GI50 (UACC-62 melanoma) [µM] | GI50 (RXF 393 renal) [µM] | GI50 (M14 melanoma) [µM] | GI50 (HCC-2998 colon) [µM]
CCCCCCC(=O)C/C(CCC(=O)N(Cc1ccccc1)Cc1ccccc1)=N\Nc1ccc([N+](=O)[O-])cc1[N+](=O)[O-] | > 100 | > 100 | > 100 | > 100 | > 100 | > 100 | > 100 | > 100 | > 100 | > 100 | – | – | – | – | – | – | – | – | – | –
O=C(Nc1n[nH]c2nc(-c3ccco3)c(Br)cc12)C1CC1 | > 25 | > 25 | > 25 | > 25 | > 25 | > 25 | > 25 | > 25 | > 25 | > 25 | > 25 | > 25 | > 25 | > 25 | > 21.7 | > 25 | > 25 | 4.89 | > 25 | > 25
O=S(=O)(O)CS(=O)(=O)OCCCl | > 100 | > 100 | > 100 | > 100 | > 100 | > 100 | > 100 | > 100 | > 100 | > 100 | – | – | – | – | – | – | – | – | – | –
O=C(c1cccs1)c1c(C(F)(F)F)n([O-])c2ccc(C(F)(F)F)cc2[n+]1=O | 0.321 | 0.526 | 0.909 | 0.908 | 0.127 | 0.318 | 1.08 | 0.387 | 1.87 | 1.28 | 0.152 | 0.145 | 0.328 | 0.451 | 0.0571 | 0.169 | 0.34 | 0.195 | 0.791 | 0.647
N#Cc1ccccc1NC(=O)C(=O)C(C(=O)c1ccccc1-c1ccccc1)C1OC(=O)c2ccccc21 (stereo unspecified) | 38.8 | 50.2 | 43.2 | 40.4 | 32.2 | – | 33.8 | 25.3 | 30.6 | 29.2 | – | – | – | – | – | – | – | – | – | –
O=C1C2CC(Cl)C(SSC3CC4C(=O)N(SC(Cl)(Cl)C(Cl)Cl)C(=O)C4CC3Cl)CC2C(=O)N1SC(Cl)(Cl)C(Cl)Cl (stereo unspecified) | 3 | 1.83 | 4.87 | 6.18 | 3.03 | 4.82 | 4.49 | 3.17 | 2.88 | 16.4 | – | – | – | – | – | – | – | – | – | –
Cc1ccc(S(=O)(=O)N/N=C/C(Br)=C(/Br)C(=O)O)cc1 | 39.6 | 5.12 | 13.3 | 9.65 | 11 | 20 | 22.3 | 5.17 | 18.2 | 15.7 | – | – | – | – | – | – | – | – | – | –
CNC(=O)OCc1nc(SC(C)C)n(C)c1COC(=O)NC | > 100 | > 100 | > 100 | > 100 | > 100 | > 100 | > 100 | > 100 | > 100 | > 100 | – | – | – | – | – | – | – | – | – | –
Cc1ccc(S(=O)(=O)NC(CCC(=O)Nc2ccc(Cl)cc2)C(=O)Nc2ccc(Cl)cc2)cc1 (stereo unspecified) | 2.76 | 5.76 | 2.15 | 6.48 | 5.63 | 7.28 | 0.367 | 7.31 | 6.58 | 7.14 | 0.805 | 0.369 | 0.531 | 0.625 | 0.258 | 0.401 | 0.0967 | 1.89 | 0.0541 | 1.48
COc1c(OC(C)=O)ccc(/C=C2\N=C(C)OC2=O)c1[N+](=O)[O-] | > 100 | > 100 | > 100 | – | > 100 | > 100 | > 100 | > 100 | > 100 | > 100 | – | – | – | – | – | – | – | – | – | –
COc1cc(O)c(C(=O)/C=C/c2ccccc2)c(OC)c1 | 14.4 | 5.17 | 28 | 13.1 | 6.36 | 17.6 | 17.3 | 32.8 | 84.1 | 14.1 | – | – | – | – | – | – | – | – | – | –
O=C(CCCc1c[nH]c2ccccc12)NC1CC(=O)c2c(Br)sc(Br)c21 (stereo unspecified) | 40 | 67.1 | 41.3 | 9.02 | 3.75 | 63.1 | 27.9 | 80.8 | – | 4.03 | 17.9 | 5.04 | 19.8 | 2.77 | 1.9 | 22.2 | 14.2 | 14.7 | – | 2.06
COc1ccc(N(C)c2nc(C)nc3ccccc23)cc1 | 4.94 | < 0.01 | < 0.01 | > 100 | > 51.4 | 60.4 | > 49.6 | > 100 | 14.9 | 4.31 | < 0.01 | < 0.01 | < 0.01 | 19.3 | < 0.01 | 0.0103 | < 0.01 | < 0.01 | < 0.01 | < 0.01
O=C1c2ccccc2-c2c1c1ccccc1c(=O)n2CCO | > 71.6 | 7.29 | > 100 | > 100 | > 100 | > 81 | > 59.5 | > 100 | > 100 | > 100 | – | – | – | – | – | – | – | – | – | –
O/N=C1\CCc2cc(-c3nc(C4CCNCC4)[nH]c3-c3ccncc3)ccc21 | > 25 | > 25 | > 25 | > 21.3 | > 25 | > 25 | > 25 | > 25 | > 25 | > 25 | > 25 | > 25 | 2.78 | 1.5 | > 25 | > 25 | 0.24 | > 25 | 7.57 | > 25
O=C1C=C[C@]2(C[C@@H](c3cccc(C(F)(F)F)c3)O[C@@H](c3cccc(C(F)(F)F)c3)O2)O1 | 6.6 | 8.34 | 5.51 | 6.44 | 1.71 | 5.08 | 4.63 | 3.91 | 23.7 | 3.18 | 1.97 | 1.88 | 1.88 | 2.34 | 0.433 | 1.84 | 1.77 | 1.67 | 4.11 | 1.63
